According to ChEMBL document CHEMBL1201862, “PubChem BioAssay data set” (2004):
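The compound was tested at five concentrations on cells cultured in 96-well plates, with a 48-hour exposure period. At the GI50, growth is halved.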 Activity calls are given as the source filed them. Cut-off read from the data, not from the text of the source: active = GI50 up to about 1.1 µM and inactive = higher. Numbered stars: 1 amine (or outer) side, 2 acyl side, 3 side chain; on linkers, the order of the positions; unused ones are H or OH. Square brackets hold non-standard residues; d marks the D form. Peptide text beside a SMILES is read from it. * marks the point of attachment. X30 = CC(=O)N(C)SCC(N[*:1])C(=O)[*:2]; Cbz = O=C(OCc1ccccc1)*; Bn = c1ccc(C*)cc1

Experiments:
Assay in all cases: NCI-60 cell line screen, 48 h
IGROV-1 = tested on: IGROV-1
SF-539 = tested on: SF-539
LOX IMVI = tested on: LOX IMVI
COLO 205 = tested on: COLO 205
SF-268 = tested on: SF-268
CCRF-CEM = tested on: CCRF-CEM
OVCAR-5 = tested on: OVCAR-5
EKVX = tested on: EKVX
M14 = tested on: M14
T47D = tested on: T47D
SR = tested on: SR
SN12C = tested on: SN12C
HCT-116 = tested on: HCT-116
TK-10 = tested on: TK-10
Hs-578T = tested on: Hs-578T
SK-OV-3 = tested on: SK-OV-3
RXF 393 = tested on: RXF 393
NCI/ADR-RES = tested on: NCI/ADR-RES
MDA-MB-231 = tested on: MDA-MB-231
HOP-62 = tested on: HOP-62

Measured: GI50

COc1ccc(C(O)CNC(=O)c2ccccc2)cc1 (stereo not given)
inactive: IGROV-1 > 100 µM | SF-539 > 100 µM | LOX IMVI > 100 µM | COLO 205 > 100 µM | SF-268 > 100 µM | CCRF-CEM > 100 µM | OVCAR-5 > 100 µM | EKVX > 100 µM | M14 > 100 µM | T47D > 100 µM | SR > 100 µM | SN12C > 100 µM | HCT-116 > 100 µM | TK-10 > 100 µM | Hs-578T > 100 µM | SK-OV-3 > 100 µM | RXF 393 > 100 µM | NCI/ADR-RES > 100 µM | MDA-MB-231 > 100 µM | HOP-62 > 100 µM

CC(=O)N(C)SCC(NC(=O)C(Cc1ccccc1)NC(=O)OCc1ccccc1)C(=O)NC(Cc1ccccc1)C(=O)NC(Cc1c[nH]c2ccccc12)C(=O)NC(CCCCNC(=O)OCc1ccccc1)C(=O)NC(C(=O)NC(CSN(C)C(C)=O)C(=O)NC(C(N)=O)C(C)OCc1ccccc1)C(C)OCc1ccccc1 (stereo not given) (Cbz-F[X30]FWK(Cbz)T(Bn)[X30]T(Bn)-NH2; configuration not given here)
inactive: IGROV-1 > 100 µM | SF-539 > 100 µM | LOX IMVI 86.5 µM | COLO 205 > 100 µM | SF-268 > 100 µM | CCRF-CEM > 100 µM | OVCAR-5 > 100 µM | EKVX > 100 µM | M14 > 100 µM | T47D > 100 µM | SR > 100 µM | SN12C > 100 µM | HCT-116 > 100 µM | TK-10 > 100 µM | Hs-578T > 100 µM | SK-OV-3 1.63 µM | RXF 393 > 100 µM | NCI/ADR-RES > 100 µM | MDA-MB-231 35.3 µM | HOP-62 > 100 µM
